{"source": "patent US20260176628A1", "about": "“TARGETED EPIGENETIC EDITING AS NOVEL THERAPY FOR MALIGNANT GLIOMA” (The Regents of the University of California, priority 2022, published 2026)", "key": {"MGMT CpG island": {"tested_on": "MGMT CpG island", "experiment": "Bisulfite sequencing (BiSEQ) of TA clones", "format": "cell-based, human", "settings": "for location of methylated CpG sites: LN18 dCas9-DNMT3A-CD/sgRNA clones, Region 1 (sgRNA4) or Region 2 (sgRNA1, 2, 3)", "source_text": "FIG. 2 Bisulfite sequencing of representative clones with induced methylation patterns of CpG sites at CRISPR-targeted regions within the MGMT CpG island. (a) Map of MGMT CpG island, 762 bp in length, encompassing promoter, exon 1, enhancer, and intron 1 regions. Comprehensive map of the MGMT gene with superimposed locations of Illumina probes (yellow boxes) as well as exon (salmon), intron (purple), and promoter/upstream (gray) regions. Locations of complementary sequences to the four sgRNAs are as shown. Open star, half-closed star and closed star regions indicate locations of differentially methylated Illumina probes. F1/R1 and F2/R2 indicate nested PCR primer pairs for Region 1 and Region 2, respectively. Inset: MGMT CpG island (individual CpG sites in light green) and relative locations of Region 1 and Region 2. CpG sites 22, 57, 72, and 96 indicate the specific sites flanking each region, numbered in order from 5′ to 3′ within the CpG island. Differentially methylated regions are shown (DMR1 and DMR2), located within assayed Region 1 and 2, respectively. MSP region is also shown within DMR2. Genetic regions and positions on Chromosome 10 were determined using the UCSC genome browser (GRCh37/hg19 assembly) and the 850K array probe annotation file provided by Illumina. (b) Lollipop schematic illustrating the distribution of CpG methylation sites in each representative clonal population (red circle=methylated site; gray circle=unmethylated site). Genomic DNA from LN18 cells containing either dCas9-DNMT3A/non-specific sgRNA or dCas9-DNMT3A/sgRNAs underwent sodium bisulfite treatment, followed by nested PCR amplification. Amplicons of Region 1 and Region 2 were obtained separately and used to generate individual clones for each region via TA cloning. Abbreviations for individual clone nomenclature (e.g., “4-NSC1” vs. “13-NSC1”): “4”=Region containing sgRNA4 target sequence; “13”=Region containing sgRNA 1, 2, 3 target sequences. “NSC” vs. “SgR” indicates whether clone source was transfected with non-specific sgRNA or sgRNA1, 2, 3, 4. Numbers following NSC or SgR designation indicate individual clone numbers. Each row of the schematic (per category, NSC or SgR) represents a single clone. Regional CpG sites as per Malley et al (2011): DMR1=CpG 25-50; DMR2=CpG 73-90; MSP=CpG 76-87 (MSP-F=CpG 76-80; MSP-R=CpG 84-87). Core/minimal promoter=CpG 50-62; Enhancer=CpG 82-87. […] Blue arrows indicate CpG sites that are methylated (converted from T-G to C-G). Region 1 includes the sequence targeted by sgRNA4 (s4). Region 2 includes the sequence targeted by sgRNA 1, 2 and 3 (s1, s2, s3).\nBisulfite Sequencing. DNA was isolated using DNEasy Blood & Tissue Kit (Qiagen, Catalog #69506). Bisulfite conversion was accomplished using EZ DNA Methylation-Gold (Zymo Research, Catalog #D5005) per kit protocol. Nested PCR primers were used as follows: […]\nRegion 1: First PCR primer pair F4/R4; second PCR pair F5/R4.\nRegion 2: First PCR primer pair F1/R1; second PCR pair F1/SeqR.\nSequencing reactions were performed using BigDye Terminator v3.1 Cycle Sequencing Kit (ThermoFisher, Cat #433750) with sequencing primers (R4 primer=Region 1; SeqR primer=Region 2); samples were purified by PCR Clean-Up Performa Spin Columns (EdgeBio Cat #13266) and submitted for Sanger sequencing analysis (Laragen, Culver City, CA).\nTA Cloning. Sodium bisulfite-treated genomic DNA underwent nested PCR as above, for either Region 1 or 2. […]"}, "LN18 human glioma cells [1]": {"tested_on": "LN18 human glioma cells", "experiment": "Clonogenic assay, TMZ sensitivity", "format": "cell-based", "settings": "TMZ 12 days total treatment, vs DMSO"}, "LN18 human glioma cells [2]": {"tested_on": "LN18 human glioma cells", "experiment": "MTT survival assay, TMZ sensitivity", "format": "cell-based", "settings": "TMZ 25 μM or 100 μM, 5 days, vs DMSO", "experimental": "FIG. 4 Effects of dCas9-DNMT3A-CD/MGMT-specific sgRNA targeted methylation on the sensitivity of glioma cells to temozolomide. […] Negative control: LN18 NSC cells. The “n” indicates the number of separate experiments performed for each cell type. Results were normalized to the average negative control treatment condition (drug vehicle DMSO). TMZ concentrations ranged from 25 µM to 100 µM. Horizontal bars for all figures represent post hoc Tukey's multiple comparisons test results for groups of interest following two-way ANOVA (“ns” indicates “p>0.05”; * indicates p<0.05; ** indicates p<0.01; *** indicates p<0.001; **** indicates p<0.0001). (a) TMZ sensitivity measured via MTT survival assays in LN18 cells co-expressing dCas9-DNMT3A-CD (d3A) and MGMT-targeting sgRNAs (sg1, 2, 3, 4) compared to NSC lines. […] MTT cell survival was calculated by subtracting […] for TMZ-treated cells (25 µM and 100 µM, 5 days) versus DMSO treatment control condition, followed by normalization to the average control condition.\nCell Survival Assays. […] Formazan product was extracted by cell lysis with DMSO (300 μL) and measured (560 nm absorbance with background subtraction of 660 nm). […]"}, "MGMT": {"target": "T1, MGMT (Homo sapiens, UniProt P16455)", "T1 construct": "host or cells: patients (clinical trial)", "T1 sequence (P16455 1-207)": "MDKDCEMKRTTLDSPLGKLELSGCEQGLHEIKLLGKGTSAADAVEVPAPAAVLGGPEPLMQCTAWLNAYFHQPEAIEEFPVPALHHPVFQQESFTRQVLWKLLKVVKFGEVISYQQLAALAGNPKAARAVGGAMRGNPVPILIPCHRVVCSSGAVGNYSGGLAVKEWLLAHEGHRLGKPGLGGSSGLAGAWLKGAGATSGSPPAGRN", "settings": "Phase II clinical trial, cited from earlier work"}}}
{"molecule": "5′-AGGCGCCCTCACTTCGCCGT-3′ (guide (5'-AGGCGCCCTCACTTCGCCGT-3'; as printed in the source, key not given here) [sgRNA2]", "values": [{"measurement": "location of methylated CpG sites", "setting": "MGMT CpG island", "result": "CpG 77, 81-89"}]}
{"molecule": "5′-AGGGCATGCGCCGACCCGGT-3′ (guide (5'-AGGGCATGCGCCGACCCGGT-3'; as printed in the source, key not given here) [sgRNA4]", "values": [{"measurement": "location of methylated CpG sites", "setting": "MGMT CpG island", "result": "CpG 22-38"}, {"measurement": "methylation radius upstream from sgRNA", "setting": "MGMT CpG island; Region 1, to upstream 5′ limit of amplicon (CpG 22)", "result": 20, "unit": "bp"}]}
{"molecule": "5′-CTTTGCGTCCCGACGCCCGC-3′ (guide (5'-CTTTGCGTCCCGACGCCCGC-3'; as printed in the source, key not given here) [sgRNA3]", "values": [{"measurement": "location of methylated CpG sites", "setting": "MGMT CpG island", "result": "CpG 77, 81-89"}]}
{"molecule": "5′-GGTGCGCACCGTTTGCGACT-3′ (guide (5'-GGTGCGCACCGTTTGCGACT-3'; as printed in the source, key not given here) [sgRNA1]", "values": [{"measurement": "location of methylated CpG sites", "setting": "MGMT CpG island", "result": "CpG 77, 81-89"}]}
{"molecule": "5′-GTATTACTGATATTGGTGGG-3′ (chemistry not given here) [NSC]", "values": [{"measurement": "TMZ sensitivity (clonogenic survival)", "setting": "LN18 human glioma cells [1]", "result": "Essentially no TMZ sensitivity"}, {"measurement": "TMZ sensitivity (MTT survival)", "setting": "LN18 human glioma cells [2]", "result": "Essentially no TMZ sensitivity"}]}
{"molecule": "Nc1nc(OCc2ccccc2)c2nc[nH]c2n1", "note": "[O-6-benzylguanine]", "values": [{"measurement": "clinical benefit", "setting": "MGMT", "result": "limited benefits"}, {"measurement": "toxicity", "setting": "MGMT; including off-target bone marrow suppression", "result": "severe dose-limiting toxicities"}]}
